Experimental data taken from patent US20250066288A1, “DIHYDRAZIDE-DIHYDRAZONE COMPOUNDS WITH ADAMANTYL MOIETY AND A PROCESS FOR SYNTHESIS OF THE SAME” (priority 2022, published 2025).
Read-outs that look alike come from different tables or passages of the source.

Legend:
[1] = system: Staphylococcus aureus (ATCC 6538); test: Antimicrobial activity test by tube dilution method, bacteria; format: cell-based; settings: for killing at 50000 µg/mL: Staphylococcus aureus, ATCC6538, 0.05 h, read-out: S. aureus % killing
Method: (§1) The antimicrobial activity of the compounds was determined by tube dilution method. Powdery compounds were taken in closed glass vials and were tested against Staphylococcus aureus (ATCC 6538) (bacteria) and Candida Albicans (ATCC 10231) (Fungi). 50 mg of the sample was taken in 1 ml of DMSO and the contact time for the sample was maintained as 3 minutes. The medium for microorganisms was Soyabean Casein Digest Agar for bacteria and Sabouraud's Dextrose Agar for fungi. The incubation time for bacteria was 2 days at 30-35° C. while for fungi was 3-5 days at 20-25° C.

[2] = system: Candida Albicans (ATCC 10231); test: Antimicrobial activity test by tube dilution method, fungi; format: cell-based; settings: for killing at 50000 µg/mL: Candida albicans, ATCC10231, 0.05 h, read-out: C. albicans % killing
Method: as §1

[3] = 50 mg sample in 1 ml DMSO, contact time 3 minutes, Soyabean Casein Digest Agar, 2 days at 30-35° C.
[4] = 50 mg sample in 1 ml DMSO, contact time 3 minutes, Sabouraud's Dextrose Agar, 3-5 days at 20-25° C.

SMILES | S. aureus Final Count [1, 3] | killing at 50000 µg/mL [1] | C. albicans Final Count [2, 4] | killing at 50000 µg/mL [2] | killing at 50000 µg/mL [1, 3] | killing at 50000 µg/mL [2, 4] | S. aureus % killing [1, 3] | C. albicans % killing [2, 4]
O=C(N/N=C\c1ccc([N+](=O)[O-])cc1)C12CC3CC(C1)CC(C(=O)N/N=C/c1ccc([N+](=O)[O-])cc1)(C3)C2 [Compound 5a, Bis [N′-(4-nitro)benzylidene]adamantane-1,3-dicarbohydrazide] | 0 | 100% | 0 | 100% | – | – | – | –
COc1cc(/C=N\NC(=O)C23CC4CC(C2)CC(C(=O)N/N=C/c2ccc(O)c(OC)c2)(C4)C3)ccc1O [Compound 5b, Bis [N′-(3-methoxy, 4-hydroxy)benzylidene]adamantane-1,3-dicarbohydrazide] | 1680000 | – | 0 | – | 90.3% | 100% | – | –
C/C(=N/NC(=O)C12CC3CC(C1)CC(C(=O)N/N=C(\C)c1cc(C)ccc1O)(C3)C2)c1cc(C)ccc1O [Compound 5c, Bis [N′-(1-(2-hydroxy, 5-methyl phenyl)ethylidene)]adamantane-1,3-dicarbohydrazide] | 2980000 | – | 10 | – | 82.9% | 100% | – | –
COc1ccc(/C=N\NC(=O)C23CC4CC(C2)CC(C(=O)N/N=C/c2ccc(OC)c(OC)c2)(C4)C3)cc1OC [Compound 5d] | 10300000 | – | 0 | – | 50.2% | 100% | – | –
CCOc1ccc(/C(C)=N\NC(=O)C23CC4CC(C2)CC(C(=O)N/N=C(\C)c2ccc(OCC)cc2)(C4)C3)cc1 [Compound 5e, Bis [N′-(1-(4-ethoxy)ethylidene)]adamantane-1,3-dicarbohydrazide] | 16400000 | – | 0 | – | 16.8% | 100% | – | –
O=C(N/N=C\c1ccc2ccccc2c1)C12CC3CC(C1)CC(C(=O)N/N=C/c1ccc4ccccc4c1)(C3)C2 [Compound 5f] | 16000000 | – | 0 | – | 20.4% | 100% | – | –
O=C(N/N=C/c1ccc([N+](=O)[O-])o1)C12CC3CC(C1)CC(C(=O)N/N=C/c1ccc([N+](=O)[O-])o1)(C3)C2 [Compound 5g] | 10 | 100% | 0 | 100% | – | – | – | –
COc1cc(/C=N\NC(=O)C23CC4CC(C2)CC(C(=O)N/N=C/c2cc(OC)c(O)c([N+](=O)[O-])c2)(C4)C3)cc([N+](=O)[O-])c1O [Compound 5h, Bis [N′-(3-nitro, 4-hydroxy, 5-methoxy)benzylidene]adamantane-1,3-dicarbohydrazide] | 0 | 100% | 0 | 100% | – | – | – | –
Cc1ccc(/C=N/NC(=O)C23CC4CC(C2)CC(C(=O)N/N=C/c2ccc(C)cc2)(C4)C3)cc1 [Compound 5i, Bis[N′-(4-methyl)benzylidene]adamantane-1,3-dicarbohydrazide] | 3120000 | – | 0 | – | 85% | 100% | – | –
O=C(N/N=C/c1ccc(O)cc1)C12CC3CC(C1)CC(C(=O)N/N=C/c1ccc(O)cc1)(C3)C2 [Compound 5j, Bis[N′-(4-hydroxy)benzylidene]adamantane-1,3-dicarbohydrazide] | 550000 | – | 0 | – | 97.2% | 100% | – | –
C/C(=N\NC(=O)C12CC3CC(C1)CC(C(=O)N/N=C(\C)c1ccc(O)cc1)(C3)C2)c1ccc(O)cc1 [Compound 5k, Bis[N′-(1-(4-hydroxyphenyl)ethylidene)]adamantane-1,3-dicarbohydrazide] | 7500000 | – | 0 | – | 60.3% | 100% | – | –
COc1cc(/C=N/NC(=O)C23CC4CC(C2)CC(C(=O)N/N=C/c2cc(Br)c(O)c(OC)c2)(C4)C3)cc(Br)c1O [Compound 5l, Bis[N′-(3-bromo,4hydroxy,5-methoxy)benzylidene]adamantane-1,3-dicarbohydrazide] | 0 | – | 0 | – | 100% | 100% | – | –
O=C(N/N=C\c1cccs1)C12CC3CC(C1)CC(C(=O)N/N=C/c1cccs1)(C3)C2 [Compound 5m] | 1230000 | – | 0 | – | 93.4% | 100% | – | –
CCOc1ccc(/C=N/NC(=O)C23CC4CC(C2)CC(C(=O)N/N=C/c2ccc(OCC)cc2)(C4)C3)cc1 [Compound 5n, Bis[N′-(4-ethoxy)benzylidene]adamantane-1,3-dicarbohydrazide] | 10 | – | 0 | – | 100% | 100% | – | –
O=C(NN=Cc1ccc(Cl)c([N+](=O)[O-])c1)C12CC3CC(C1)CC(C(=O)NN=Cc1ccc(Cl)c([N+](=O)[O-])c1)(C3)C2 [Compound 5o, Bis[N′-(3-nitro,4-chloro)benzylidene]adamantane-1,3-dicarbohydrazide] | 18400000 | – | 0 | – | – | – | 9.36% | 100.00%
O=C(N/N=C/c1ccc(Br)cc1)C12CC3CC(C1)CC(C(=O)N/N=C/c1ccc(Br)cc1)(C3)C2 [Compound 5p, Bis[N′-(4-bromo)benzylidene]adamantane-1,3-dicarbohydrazide] | 2310000 | – | 0 | – | 88.7% | 100% | – | –
COc1ccc(/C=N/NC(=O)C23CC4CC(C2)CC(C(=O)N/N=C/c2ccc(OC)cc2)(C4)C3)cc1 [Compound 5q, Bis[N′-(4-methoxy)benzylidene]adamantane-1,3-dicarbohydrazide] | 14400000 | – | 0 | – | 26.1% | 100% | – | –
CC(=NNC(=O)C12CC3CC(C1)CC(C(=O)NN=C(C)c1ccc(Cl)c([N+](=O)[O-])c1)(C3)C2)c1ccc(Cl)c([N+](=O)[O-])c1 [Compound 5r, Bis[N′-(1-(3-nitro,4-chloro)ethylidene)]adamantane-1,3-dicarbohydrazide] | 5100000 | – | 0 | – | – | – | 74.24% | 100.00%
